Results: a compilation of properties of binary mixtures (doi:10.1039/b704843b)

Test: xn = mol fraction of the nth substance listed
Settings: 101 kPa

CCCC[n+]1ccn(C)c1.F[P-](F)(F)(F)(F)F + O
viscosity [mPa·s]
Settings	298.15 K	303.15 K	308.15 K	313.15 K	318.15 K
x1 = 0.0003	0.909	0.809	0.72	0.662	0.604
x1 = 0.0006	0.917	0.815	0.725	0.667	0.609
x1 = 0.001	0.923	0.822	0.73	0.672	0.614
x1 = 0.0013	–	0.83	0.737	0.678	0.62

O + CCCC[n+]1ccn(C)c1.F[P-](F)(F)(F)(F)F
x1 = 1
Settings	viscosity [mPa·s]
298.15 K	0.894
308.15 K	0.717
313.15 K	0.659
